These results are taken from ChEMBL document CHEMBL1136259, “Synthesis of 2-substituted-pyrrolidinethiourea derivatives and their antagonist effect on vanilloid receptor” (Bioorg Med Chem Lett, 2003).

For test [1], the species on record is Rattus norvegicus. Kind of test: Antagonist activity tested in [Ca2+] -influx assay by using neonatal rat cultured spinal sensory neurons. The class given is functional.
Test [2] is filed under the species Rattus norvegicus. The test is described as follows: Agonist activity tested in [Ca2+] -influx assay by using neonatal rat cultured spinal sensory neurons. The class given is functional.

In general, IC50 refers to the midpoint of a concentration-inhibition curve. A low value points to greater potency in that assay. A word on the EC50: it is the concentration at which the effect is half-maximal. A high value points to a less potent agent.

For `COc1cc(C2CCCN2/C(S)=N/CCc2ccccc2)ccc1O` (stereo not given), in test [1], the half-maximal inhibitory concentration (IC50) is above 100 µM. The EC50 in test [2] was above 100 µM.
For the compound `COc1cc(CCC2CCCN2/C(S)=N/CCc2ccccc2)ccc1O` (stereo not given), the IC50 in test [1] was found to be 3 µM. This compound also had an EC50 in test [2] above 100 µM.
On to `Oc1ccc(C2CCCN2/C(S)=N/CCc2ccccc2)cc1O` (stereo not given), for which, in test [1], the 50% inhibitory concentration (IC50) was above 100 µM. Moreover, in test [2], the EC50 is above 100 µM.
Take `Oc1cc2c(cc1O)CN(C(=S)NCCc1ccc(Cl)cc1)CCC2` [CAPSAZEPINE]: in test [1], the IC50 came to 0.6 µM. Besides, the EC50 in test [2] was above 100 µM.
For the compound `Oc1ccc(CCC2CCCN2/C(S)=N/CCc2ccccc2)cc1O` (stereo not given), in test [1], the IC50 came out at 55 µM. Further, the EC50 in test [2] is above 100 µM.
